What all share (assay type): cell-based
One assay has as its target T1, TAO2 (Homo sapiens, UniProt Q9UL54).
T1 construct: endogenous in cells; host or cells: AMO1, KMS27
The assay is described as follows: Immunoblot of TAO2 depletion. Particulars: AMO1 and KMS27 cells, 4 h. As for the experimental part:
(§1) Cells were lysed in buffer containing 20 mM HEPES 7.2, 150 mM NaCl, and 1% Triton X-100, supplemented with fresh protease and phosphatase inhibitors (Invitrogen, #78440), cleared by centrifugation at 12,000 × g for 10 min, and analyzed by BCA protein assay (Thermo Fisher Scientific, #23227). Equal protein amounts were loaded, separated by SDS-PAGE, electrotransferred to nitrocellulose membranes using the iBLOT2 system (Invitrogen), and blocked in 5% nonfat milk solution for 60 min. Membranes were probed with primary antibodies at 1:1000 dilution in 5% milk at 4 °C overnight. Signal was detected using appropriate horseradish peroxidase (HRP)-conjugated secondary antibodies at 1:10,000 in 5% milk at room temperature for 1–2 h. Bands were visualized by the Azure 600 western blot imaging system (Azure Biosystems). For in vitro ubiquitination assays performed with Me-Ub, bands were visualized by the Odyssey CLx Imager (LI‑COR) after incubating the blots with the IRDye 800CW (LI-COR) secondary antibodies at 1:10,000 in Intercept Blocking Buffer (LI-COR) at room temperature for 1–2 h. […]
(§2) The kinome selectivity of G6374 was assessed at 1 μM for 1 h versus a panel of 220 human kinases (SelectScreen Kinase Profiling Services, Thermo Fisher Scientific). […]
For orientation: A western blot detects proteins with antibodies after separation by electrophoresis.

A further assay deals with T2, PKD1 (Homo sapiens, UniProt Q15139).
T2 construct: endogenous in cells; host or cells: KMS27
T2 sequence (Q15139 whole entry): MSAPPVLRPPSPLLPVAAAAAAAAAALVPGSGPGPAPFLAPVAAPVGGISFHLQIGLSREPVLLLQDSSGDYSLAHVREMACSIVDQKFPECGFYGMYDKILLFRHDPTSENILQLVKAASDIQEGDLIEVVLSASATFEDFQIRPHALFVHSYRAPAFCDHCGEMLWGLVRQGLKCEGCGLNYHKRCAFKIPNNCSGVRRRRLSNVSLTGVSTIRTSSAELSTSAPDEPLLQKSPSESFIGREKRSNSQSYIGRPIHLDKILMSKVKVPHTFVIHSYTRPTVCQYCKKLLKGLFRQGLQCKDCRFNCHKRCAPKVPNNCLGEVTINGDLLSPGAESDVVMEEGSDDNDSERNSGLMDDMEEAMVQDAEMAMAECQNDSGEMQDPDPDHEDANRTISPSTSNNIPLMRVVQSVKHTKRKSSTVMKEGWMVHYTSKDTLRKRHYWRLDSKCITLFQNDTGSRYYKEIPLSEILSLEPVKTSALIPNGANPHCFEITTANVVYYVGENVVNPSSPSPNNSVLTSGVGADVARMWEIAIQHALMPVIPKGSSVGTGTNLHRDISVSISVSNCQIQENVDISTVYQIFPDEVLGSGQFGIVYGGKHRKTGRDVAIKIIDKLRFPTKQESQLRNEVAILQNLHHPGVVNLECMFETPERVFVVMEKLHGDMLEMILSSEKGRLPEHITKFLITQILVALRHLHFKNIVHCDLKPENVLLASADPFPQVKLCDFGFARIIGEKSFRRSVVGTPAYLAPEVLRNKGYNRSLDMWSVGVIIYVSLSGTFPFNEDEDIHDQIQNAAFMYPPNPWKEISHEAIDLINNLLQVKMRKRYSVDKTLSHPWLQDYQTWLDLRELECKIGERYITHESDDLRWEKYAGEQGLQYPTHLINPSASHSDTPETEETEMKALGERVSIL
The assay is described as follows: Immunoblot of PKD1 degradation in KMS27 cells. The settings on record: N=3. As for the experimental part:
as §1, §2

In another assay the target is T3, IRE1 H579A:VHL (Homo sapiens, UniProt O75460+P40337, H579A).
T3 construct: N2731; host or cells: HEK293T
T3 sequence (O75460 19-977 H579A): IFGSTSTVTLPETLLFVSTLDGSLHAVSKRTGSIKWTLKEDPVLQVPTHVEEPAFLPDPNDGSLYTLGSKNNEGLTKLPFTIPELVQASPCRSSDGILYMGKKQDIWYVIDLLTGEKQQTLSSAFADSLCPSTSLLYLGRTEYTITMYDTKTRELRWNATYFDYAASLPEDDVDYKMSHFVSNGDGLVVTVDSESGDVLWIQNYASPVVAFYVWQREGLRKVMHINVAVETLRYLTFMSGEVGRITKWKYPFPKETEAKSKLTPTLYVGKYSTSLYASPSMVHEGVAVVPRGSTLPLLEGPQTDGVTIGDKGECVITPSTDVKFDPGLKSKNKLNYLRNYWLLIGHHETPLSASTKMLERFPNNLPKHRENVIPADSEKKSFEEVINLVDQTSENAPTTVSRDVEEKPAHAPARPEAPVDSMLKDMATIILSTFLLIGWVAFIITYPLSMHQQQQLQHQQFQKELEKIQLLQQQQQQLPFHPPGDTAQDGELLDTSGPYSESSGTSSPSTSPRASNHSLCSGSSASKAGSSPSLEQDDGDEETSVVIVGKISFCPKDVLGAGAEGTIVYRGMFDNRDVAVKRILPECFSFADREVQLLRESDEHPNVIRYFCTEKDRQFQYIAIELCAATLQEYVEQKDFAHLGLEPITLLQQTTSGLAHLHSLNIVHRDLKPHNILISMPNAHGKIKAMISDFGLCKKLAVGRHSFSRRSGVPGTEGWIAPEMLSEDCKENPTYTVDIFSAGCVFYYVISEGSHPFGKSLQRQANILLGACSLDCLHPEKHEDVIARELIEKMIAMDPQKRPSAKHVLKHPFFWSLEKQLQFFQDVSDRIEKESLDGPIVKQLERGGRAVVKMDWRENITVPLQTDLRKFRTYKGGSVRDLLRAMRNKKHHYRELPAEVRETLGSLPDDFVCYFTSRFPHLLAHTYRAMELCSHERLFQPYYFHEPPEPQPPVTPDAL
T3 sequence (Q13617 whole entry, further chain): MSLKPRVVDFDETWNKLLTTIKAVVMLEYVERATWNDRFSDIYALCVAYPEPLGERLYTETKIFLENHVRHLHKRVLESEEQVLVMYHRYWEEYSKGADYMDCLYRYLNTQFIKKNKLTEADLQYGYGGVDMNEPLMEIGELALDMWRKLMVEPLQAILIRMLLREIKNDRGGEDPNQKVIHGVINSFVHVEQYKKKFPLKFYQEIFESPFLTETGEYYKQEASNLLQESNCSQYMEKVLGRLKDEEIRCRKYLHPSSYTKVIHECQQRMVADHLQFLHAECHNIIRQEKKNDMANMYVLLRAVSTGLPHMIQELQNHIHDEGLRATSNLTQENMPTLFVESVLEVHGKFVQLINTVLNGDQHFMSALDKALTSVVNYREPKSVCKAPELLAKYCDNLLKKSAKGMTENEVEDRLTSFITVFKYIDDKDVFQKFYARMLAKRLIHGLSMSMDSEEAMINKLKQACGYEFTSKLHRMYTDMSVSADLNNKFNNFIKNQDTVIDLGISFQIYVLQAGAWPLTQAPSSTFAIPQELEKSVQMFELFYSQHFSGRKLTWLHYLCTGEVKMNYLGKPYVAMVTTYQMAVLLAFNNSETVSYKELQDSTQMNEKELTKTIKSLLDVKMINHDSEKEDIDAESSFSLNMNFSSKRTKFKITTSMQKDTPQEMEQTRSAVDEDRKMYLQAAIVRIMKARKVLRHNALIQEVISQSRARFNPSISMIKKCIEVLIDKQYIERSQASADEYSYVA
T3 sequence (Q15370 whole entry, further chain): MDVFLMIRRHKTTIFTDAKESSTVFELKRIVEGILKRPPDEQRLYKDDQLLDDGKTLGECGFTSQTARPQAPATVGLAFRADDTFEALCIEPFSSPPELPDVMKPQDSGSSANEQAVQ
T3 sequence (P62877 whole entry, further chain): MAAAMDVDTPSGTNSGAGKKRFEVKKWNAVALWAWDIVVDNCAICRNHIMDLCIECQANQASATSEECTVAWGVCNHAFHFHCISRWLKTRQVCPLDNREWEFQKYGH
T3 sequence (P40337 whole entry): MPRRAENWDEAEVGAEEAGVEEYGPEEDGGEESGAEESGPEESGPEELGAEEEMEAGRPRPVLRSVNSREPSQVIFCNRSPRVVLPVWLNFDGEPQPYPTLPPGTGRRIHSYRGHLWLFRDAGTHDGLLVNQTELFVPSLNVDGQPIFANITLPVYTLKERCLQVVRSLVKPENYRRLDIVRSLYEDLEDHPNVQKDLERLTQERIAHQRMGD
T3 sequence (Q15369 whole entry, further chain): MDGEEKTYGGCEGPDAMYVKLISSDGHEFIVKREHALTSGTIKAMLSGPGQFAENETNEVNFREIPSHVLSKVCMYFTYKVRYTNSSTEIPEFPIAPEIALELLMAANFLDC
The assay is described as follows: NanoBRET IRE1:VHL interaction, IRE1 H579A, HEK293T cells. The protocol: 8 × 10^5 293T cells per well were seeded in 6-well plates (Costar, #3516) and incubated at 37 °C, 5% CO2 for 6 h. A mixture of 0.2 µg ERN1 (IRE1)-NanoLuc Fusion Vector (Promega, NV1321), 2 µg HaloTag-VHL Fusion Vector (Promega, N2731), 6 µl FuGENE HD Transfection Reagent (Promega, E2311), and 100 µL Opti-MEM I reduced serum medium (Gibco, #31985062) per well was incubated at room temperature for 20 min before adding to cells. For expression of IRE1 mutants, site-directed mutagenesis was performed using the ERN1-NanoLuc Fusion Vector as the DNA template, and the transfection mixture was prepared in the same way as WT IRE1. After 18 h, cells from 6-well plates were trypsinized, resuspended in Opti-MEM I reduced serum medium, and reseeded into 96-well plates (Costar, #3917), with or without the addition of HaloTag NanoBRET 618 Ligand (Promega, G9801). After 18 h of incubation, a titration of G6374 (dilutions made in Opti-MEM I reduced serum medium) was added to the cells. After 2 h of G6374 treatment, NanoBRET Nano-Glo Substrate (Promega, N1571) was added to cells. The 96-well plates were imaged by GloMax Discover Microplate Reader (Promega, GM3000) with the default “BRET: NanoBRET 618” protocol (Donor: 450 BP; Acceptor: 600 LP; Integration: 0.3 s). Data analysis was performed according to the user manual.
(In general: In BRET a luciferase serves as donor, and the signal depends on an acceptor being close.)

In the next assay the target is IRE1:VHL (Homo sapiens, UniProt O75460+P40337). The assay is described as follows: co-IP of endogenous VHL with endogenous IRE1 from AMO1 cells. Also on record: co-IP of endogenous VHL with endogenous IRE1 from AMO1 cells; endogenous in cells; host or cells: AMO1. Particulars: titration of G6374. As for the experimental part: Cells were lysed in buffer containing 20 mM HEPES 7.2, 150 mM NaCl, and 1% Triton X-100, supplemented with fresh protease and phosphatase inhibitors (Invitrogen, #78440), cleared by centrifugation at 12,000 × g for 10 min, and analyzed by BCA protein assay (Thermo Fisher Scientific, #23227). Equal protein amounts were loaded, separated by SDS-PAGE, electrotransferred to nitrocellulose membranes using the iBLOT2 system (Invitrogen), and blocked in 5% nonfat milk solution for 60 min. Membranes were probed with primary antibodies at 1:1000 dilution in 5% milk at 4 °C overnight. Signal was detected using appropriate horseradish peroxidase (HRP)-conjugated secondary antibodies at 1:10,000 in 5% milk at room temperature for 1–2 h. Bands were visualized by the Azure 600 western blot imaging system (Azure Biosystems). For in vitro ubiquitination assays performed with Me-Ub, bands were visualized by the Odyssey CLx Imager (LI‑COR) after incubating the blots with the IRDye 800CW (LI-COR) secondary antibodies at 1:10,000 in Intercept Blocking Buffer (LI-COR) at room temperature for 1–2 h.
Sequence of IRE1:VHL (O75460 19-977): as the sequence (O75460 19-977 H579A) above, with A561H counted along it
Sequence of IRE1:VHL (P40337 whole entry): as the sequence (P40337 whole entry) above
Sequence of IRE1:VHL (Q15369 whole entry partner): as the sequence (Q15369 whole entry, further chain) above
Sequence of IRE1:VHL (Q15370 whole entry partner): as the sequence (Q15370 whole entry, further chain) above
Sequence of IRE1:VHL (Q13617 whole entry partner): as the sequence (Q13617 whole entry, further chain) above
Sequence of IRE1:VHL (P62877 whole entry partner): as the sequence (P62877 whole entry, further chain) above
IRE1.LD antibodies were conjugated to agarose beads using the AminoLink® Plus Immobilization Kit (Thermo Fisher, #44894). […]

Structures are written as SMILES.

The values that follow come from article PMC12749748, “Chemically-induced degradation of the endoplasmic-reticulum stress sensor IRE1 by a VHL-recruiting chimera” (Nature Communications, 2025).

A word on the EC50: it is the concentration that produces a half-maximal response. A higher EC50 goes with a need for much substance.

T1 sequence (Q9UL54 whole entry): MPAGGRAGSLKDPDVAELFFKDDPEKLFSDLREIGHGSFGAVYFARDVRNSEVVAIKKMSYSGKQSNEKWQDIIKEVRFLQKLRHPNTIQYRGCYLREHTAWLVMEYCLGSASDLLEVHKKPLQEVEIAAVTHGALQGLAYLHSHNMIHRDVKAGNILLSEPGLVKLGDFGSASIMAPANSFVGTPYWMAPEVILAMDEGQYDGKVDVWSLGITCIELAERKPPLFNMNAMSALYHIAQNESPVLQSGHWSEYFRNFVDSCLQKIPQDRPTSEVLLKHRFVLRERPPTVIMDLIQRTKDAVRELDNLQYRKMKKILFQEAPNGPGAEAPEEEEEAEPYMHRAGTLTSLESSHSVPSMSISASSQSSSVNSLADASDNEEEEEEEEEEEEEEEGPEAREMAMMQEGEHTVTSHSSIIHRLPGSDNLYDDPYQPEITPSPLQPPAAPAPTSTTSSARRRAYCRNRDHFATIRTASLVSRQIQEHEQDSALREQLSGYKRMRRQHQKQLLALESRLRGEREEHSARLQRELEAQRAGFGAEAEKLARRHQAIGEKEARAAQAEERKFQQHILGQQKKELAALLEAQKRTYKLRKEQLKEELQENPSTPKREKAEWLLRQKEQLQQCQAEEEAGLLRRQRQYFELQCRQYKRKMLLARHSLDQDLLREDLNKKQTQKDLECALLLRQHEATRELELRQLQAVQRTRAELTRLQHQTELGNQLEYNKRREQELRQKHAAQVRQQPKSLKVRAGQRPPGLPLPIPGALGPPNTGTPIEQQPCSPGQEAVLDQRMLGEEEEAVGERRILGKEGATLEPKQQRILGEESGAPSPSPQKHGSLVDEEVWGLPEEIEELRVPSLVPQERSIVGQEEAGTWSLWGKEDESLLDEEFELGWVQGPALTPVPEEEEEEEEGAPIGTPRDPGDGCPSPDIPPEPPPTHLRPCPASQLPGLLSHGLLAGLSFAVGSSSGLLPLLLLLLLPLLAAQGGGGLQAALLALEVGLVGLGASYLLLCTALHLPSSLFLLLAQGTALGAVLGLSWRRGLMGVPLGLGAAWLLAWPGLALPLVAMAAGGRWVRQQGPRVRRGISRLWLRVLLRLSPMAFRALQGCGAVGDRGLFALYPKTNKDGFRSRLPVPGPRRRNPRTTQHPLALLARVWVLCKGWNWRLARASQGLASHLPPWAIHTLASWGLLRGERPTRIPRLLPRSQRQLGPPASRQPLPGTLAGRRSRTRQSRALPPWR

For the compound `Cc1ncsc1-c1ccc(CNC(=O)[C@@H]2C[C@@H](O)CN2C(=O)[C@@H](NC(=O)CCCCN2CCN([C@H]3CC[C@H](Nc4ncc5ccc(=O)n(C(C)C)c5n4)CC3)CC2)C(C)(C)C)cc1` [G6374], the “depletion of TAO2” value on TAO2 is “did not deplete TAO2”. For the same compound, the “degradation of PKD1” value at PKD1 is recorded as “no”. In addition, the EC50 at IRE1 H579A:VHL stood at 450 ± 60 nM. Further, the “induced IRE1:VHL interaction (co-IP)” value on IRE1:VHL is “induced a much stronger interaction between the two proteins”.
